Reference: ChEMBL document CHEMBL1143302, “Identification of 3-amido-4-anilinoquinolines as potent and selective inhibitors of CSF-1R kinase” (Bioorg Med Chem Lett, 2009)

Key:
Format in all cases: ADME, organism-based
[1] = Clearance in rat at 3 mg/kg, iv and 10 mg/kg, po; conditions: in vivo
[2] = Volume of distribution at steady state in rat at 3 mg/kg, iv and 10 mg/kg, po; conditions: in vivo, read-out: Vdss
[3] = Half life in rat at 3 mg/kg, iv and 10 mg/kg, po; conditions: in vivo
[4] = Bioavailability in rat at 3 mg/kg, iv and 10 mg/kg, po; conditions: in vivo

| Structure (SMILES) | clearance [1] [mL/min/kg] | Vd [2] [L/kg] | half-life [3] [h] | bioavailability [4] [%] |
| --- | --- | --- | --- | --- |
| COc1cc2c(Nc3ccc(F)cc3F)c(C(N)=O)cnc2cc1NCCN(C)C | 220 | 36 | 1.9 | – |
| COc1cc2ncc(C(N)=O)c(Nc3ccc(F)c(Cl)c3)c2cc1OC | 59 | 1.8 | 0.6 | 24 |
| CCOc1cc2ncc(C(N)=O)c(Nc3cccc(Cl)c3Cl)c2cc1NCCN1CCCCC1 | 110 | 12 | 1.6 | – |
| COc1cc2ncc(C(N)=O)c(Nc3ccc(F)cc3)c2cc1OC | 7 | 0.3 | 0.9 | 96 |
| COc1cc2c(Nc3ccc(F)c(Cl)c3)c(C(N)=O)cnc2cc1OCCNC1CC1 | 230 | 30 | 1.7 | – |
| COc1cc2c(Nc3cccc(Cl)c3Cl)c(C(N)=O)cnc2cc1NCCN(C)C | 90 | 19 | 2.4 | – |
| COc1cc2c(Nc3ccc(F)c(Cl)c3)c(C(N)=O)cnc2cc1OCCN(C)C | 210 | 40 | 2.1 | – |
| COc1cc2ncc(C(N)=O)c(Nc3cccc(Cl)c3Cl)c2cc1OC | 115 | 4.1 | 0.5 | – |
| COc1cc2ncc(C(N)=O)c(Nc3cccc(Cl)c3Cl)c2cc1NCCN1CCCCC1 | 78 | 8.5 | 1.6 | – |
| COc1cc2c(Nc3ccc(F)c(Cl)c3)c(C(N)=O)cnc2cc1OCCN1CCCC1 | 270 | 52 | 2.4 | – |
